Measurements taken from US10526329B2 (Galapagos NV, priority 2013, dated 2020).

Columns and labels:
[1] = system: TS-exposed female C57BL/6J mice; assay: Tobacco smoke (TS) model, lungs inflammatory cells recruitment; format: in vivo, mouse; conditions: days 6 to 11, TS-exposed mice
Procedure: The aim of this experiment is to evaluate the efficacy and potency of a test compound administered p.o., once or twice daily on days 6 to 11, vs reference compounds, on pulmonary inflammation induced by 11 days of TS-exposure in female C57BL/6J mice, by assessing the effect of a test compound on the tobacco smoke induced recruitment of inflammatory cells to the lungs.
The test compounds are formulated in PEG200/0.5% methylcellulose (25/75, v/v) and are given at a dose volume of 10 mL/kg. Roflumilast and Dexamethasone are included as positive […] control, respectively. Each treatment group consists of 10 mice.
A first group of mice is subjected to daily TS-exposure for 5 consecutive days and sacrificed on the day 6, 24 h after the final TS-exposure.
A second group is exposed to air for 5 consecutive days (sham exposure) and sacrificed on the day 6, 24 h after the final air-exposure.
Compound and reference-treated groups are subjected to daily TS-exposure for 11 consecutive days and sacrificed on the day 12, 24 h after the final TS-exposure. Mice are dosed p.o. on days 6 to 11, twice daily, 1 h prior to and 6 h after each TS-exposure, with either vehicle, or the test compound at 3, 5, 10 or 30 mg/kg. Another group is dosed p.o. on days 6 to 11, once daily, 1 h prior to each TS-exposure, with either vehicle, or the test compound at 10 mg/kg.
An additional group is dosed p.o., once daily, on days 6 to 11, with roflumilast at 5 mg/kg, 1 h prior to each TS-exposure. Dexamethasone is dosed p.o., twice daily, on days 6 to 11, at 0.3 mg/kg, 1 h prior to and 6 h after each TS-exposure.
For each mouse, a BAL is performed using 0.4 mL of PBS. The lavage fluid is centrifuged, the supernatant removed and the resulting cell pellet re-suspended for total cell counts and cytospin slide preparation. […]
The lungs are dissected out and the left lobes are removed, snap-frozen and stored at −80° C. […] Cell data are presented as individual data points for each animal and the mean value calculated for each group. […]
Percentage inhibitions for the cell data are calculated using the formula below: […]

hENPP2 = hENPP2 (Homo sapiens (Human), UniProt Q13822); assay: hENPP2 biochemical assay, LPC as substrate
Procedure: The principle of the assay consists in quantifying the released choline with an enzymatic method using choline oxidase and peroxidase. Choline oxydation by choline oxydase releases betaine and peroxide. The latter is quantified in presence of HRP that converts the peroxide detection agent TOOS and 4-aminoantipyrine into quinoneimine dye. The appearance of quinoneimine dye is measured spectrophotometrically at 555 nm and is proportional to the amount of choline released by ENPP2. Inhibition of ENPP2 will result in a decrease of the signal.
Compound IC50 values are determined in a hENPP2 (UniProtKB/SwissProt Sequence ref Q13822) biochemical assay using LPC as substrate.
The enzyme is diluted in 50 mM Tris-HCl pH 8.5, 500 mM NaCl, 5 mM KCl, 10 mM CaCl2, 0.1% fatty acid free BSA in a total volume of 10 μL. the reaction is started by the addition of 10 μL of 150 μM LPC (palmitoyl 16:0) diluted in the same buffer as described above and the mixture is incubated at 37° C. for 30 min. The reaction is terminated and choline quantified by the addition of a 25 μL of a mixture containing 0.6 U/mL of choline oxidase, 0.6 U/mL of peroxydase, 1.8 mM TOOS, 1.2 mM amino-antipyrine, 20 mM EGTA (stop-developer solution) diluted in the buffer described above. […] is read on the Envision after an incubation of 30 min at room temperature (Excitation 555 nm, excitation light=70%).

Question: How did the “number of cells recovered in the BALF, in particular macrophage cells, epithelial cells, and neutrophils” value (“number of cells recovered in the BALF” for short) ([1]; 3 mg/kg twice daily p.o.) turn out when CCc1nc2c(C)cc(N3CCN(CC(=O)N4CC(O)C4)CC3)cn2c1N(C)c1nc(-c2ccc(F)cc2)c(C#N)s1 [Compound 2, 2-((2-ethyl-6-(4-(2-(3-hydroxyazetidin-1-yl)-2-oxoethyl)piperazin-1-yl)-8-methylimidazo[1,2-a]pyridin-3-yl)(methyl)amino)-4-(4-fluorophenyl)thiazole-5-carbonitrile] was run?
Answer: The value was “significantly inhibited”.

Question: And the “number of cells recovered in the BALF” value ([1]; 10 mg/kg twice daily p.o.)?
Answer: The value was “significantly inhibited”.

Question: How did the IC50 (hENPP2) turn out when CCc1nc2ccc(C3CCN(C4=NCC(CO)O4)CC3)cn2c1N(C)c1nc(-c2ccc(F)cc2)cs1 (stereo not shown) [Compound 222] was run?
Answer: Its IC50 is 500 to 1000 nM.

Question: How did the “number of cells recovered in the BALF” value ([1]; 10 mg/kg twice daily p.o.) turn out when CCc1nc2c(F)cc(N3CCN(CC(=O)N4CC(O)C4)CC3)cn2c1N(C)c1nc(-c2ccc(F)cc2)c(C#N)s1 [Compound 12, 2-((2-ethyl-8-fluoro-6-(4-(2-(3-hydroxyazetidin-1-yl)-2-oxoethyl)piperazin-1-yl)imidazo[1,2-a]pyridin-3-yl)(methyl)amino)-4-(4-fluorophenyl)thiazole-5-carbonitrile] was run?
Answer: The value was “significantly inhibited”.
